Assay results from patent publication US20170127677A1, “Formulation of clomazone having reduced volatility” (BASF SE, priority 2014, published 2017).

Assay: Volatility of clomazone from spray solution: glass tube at 25° C. with air suction, loss determined by GC
Assay type: physicochemical
Settings: 24 h; for reduction of volatility of Clomazone by compound (B): Test experiment 5, clomazone WP 100 g/ha, component B 335 g/ha
Procedure: However, a preferred method for determining the volatility of the compounds contained in the compositions according to the present invention is carried out as follows: Glass tubes (internal diameter 23 mm) are immersed in a water bath at 25° C. In the bottom of each of the glass tubes 100 μl of spray solution (component A and B diluted in water at the concentration that a farmer would typically spray) are applied with a pipette. A tube is inserted in the glass tube. The ending of the inserted tube stays 25 mm above the bottom of the glass tube (i.e. the test sample). Along the inserted tube, the air contained in each individual glass tube is constantly suctioned at 250 L/h for the whole system. All glass tubes are separated from the lid by spacers which ensure the inlet of fresh air to the glass tubes. After short time the test sample is evaporated. The system is stopped according to a defined sampling period, preferably after 24 hours. The glass tubes are taken out and washed with THF. The washing solution is analyzed by GC for the compound of interest, e.g. clomazone. The loss of compound is calculated in % of the total amount of compound applied in the initial 100 μl sample. The reference test samples for the quantification of the initial applied Clomazone contain also THF. Each value is generated from 3 to 4 independent measurements. This method allows determining the relative volatility of a certain compound depending on the additional compounds present in a certain composition.
Non-encapsulated Clomazone (as WP formulation) was prepared at 100 g/ha with 200 L water/ha. Paraffinic oil, rapeseed oil methyl ester and the aromatic solvent were added at 335 g/ha, while Dimethenamid was added at 500 g/ha. For the solvents, an appropriate emulsifier system was added. The sample size was 100 μl. The volatility test was carried out at 25° C. and the operating time was 24 h.
Solvents typically used in crop protection agents were tested for comparative purposes. As comparison dimethenamid (dimethenamid P) was also tested, but differently from example 1, the test sample solution was prepared at 335 g/ha.CE3 was included again. Two controls were included in the experiment. For the solvents, an appropriate emulsifier system was added. The volatility test was carried out at 25° C., the operating time was 24 h. The sample size was 100 μl.
Various fatty acid amides were tested as additional components in herbicidal compositions with respect to the question if volatility of clomazone in such compositions is affected. For the solvents, an appropriate emulsifier system was added. The volatility test was carried out at 25° C. the operating time was 24 h. The sample size was 100 μl. […]

| Structure (SMILES) | reduction of volatility of Clomazone by compound (B) | effect on volatility of clomazone in the composition (Test experiment 1, clomazone WP 100 g/ha, dimethenamid 500 g/ha, solvents 335 g/ha) | effect on volatility of clomazone in herbicidal compositions (Test experiment 2, clomazone 100 g/ha, dimethenamid or solvent 335 g/ha) |
| --- | --- | --- | --- |
| CCc1cccc(C)c1N(C(=O)CCl)C(C)COC (racemic) [Metolachlor, (RS)-2-ethyl-6-methyl-N-(1′-methyl-2′-methoxyethyl)-chloracetanilid] | support the claimed reduction of volatility of Clomazone | – | – |
| COCC(C)N(C(=O)CCl)c1c(C)csc1C (stereo not shown) [Dimethenamid, R,S-2-Chloro-N-(2,4-dimethyl-3-thienyl)-N-(2-methoxy-1-methylethyl)acetamide] | – | significantly reduces the volatility of clomazone | significantly reduce the volatility of clomazone |
| CCC(CC)Nc1c([N+](=O)[O-])cc(C)c(C)c1[N+](=O)[O-] [Pendimethalin, N-(1-ethylpropyl)-3,4-dimethyl-2,6-dinitrophenylamine] | support the claimed reduction of volatility of Clomazone | – | – |
